Measurements published in patent publication US20150265642A1, “NAD BIOSYNTHESIS AND PRECURSORS IN THE PREVENTION AND TREATMENT OF INFLAMMATION” (PRESIDENT AND FELLOWS OF HARVARD COLLEGE, priority 2013, published 2015).

Legend:
VHL = test: Immunoblot for VHL in gastrocnemius of NMN-treated mice; assay type: in vivo; conditions: 22-month-old mice, NMN one week
Description: (§1) C57BL/6J mice of 6, 22, or 30 months of age were obtained from the National Institutes of Aging mouse aging colony. Additionally 22 months old caloric restricted mice were also obtained from the National Institutes of Aging mouse aging colony. EGLN1 KO, SIRT1 KO and SIRT1 OE mice were generated as previously described (Minamishima et al., 2008; Price et al., 2012). Mice were acclimated for at least one-week prior to sacrifice. 3, 6, 22 and 24-month-old mice were given interperitoneal (IP) injections of 500 mg NMN/kg body weight per day or the equivalent volume of PBS for 7 consecutive days at 5:00 pm and 7:00 am on day 8 and sacrificed 4 hr after last injection.
(§2) Protein extracts from tissue or C2C12 cells were obtained by lysis in ice-cold lysis buffer (150 mM NaCl, 10 mM Tris HCl (pH 7.4), 1 mM EDTA, 1 mM EGTA, 1% Triton X-100, 0.5% NP-40) supplemented with a cocktail of protease and phosphatase inhibitors (Roche). Protein content was determined by the Bradford protein assay (Biorad), and 50 μg proteins were run on SDS-PAGE under reducing conditions. The separated proteins were then electrophoretically transferred to a polyvinylidene difluoride membrane (Perkin-Elmer). […] The immunostaining was detected using horseradish peroxidase-conjugated anti-rabbit or anti-mouse immunoglobulin for 1 h at room temperature.

[1] = test system: inflammation related markers in aortas; test: qPCR of inflammation related markers in aortas; assay type: in vivo, C57BL/6J mice; conditions: 22-months-old mice, NMN IP 500 mg/kg/day, 7 days
Method: (§3) C57BL/6J mice of 3, 6, 22, or 24 months of age were obtained from the National Institutes of Aging mouse aging colony. Mice were acclimated for at least one-week prior to sacrifice. 3, 6, 22 and 24-month-old mice were given interperitoneal (IP) injections of 500 mg NMN/kg body weight per day or the equivalent volume of PBS for 7 consecutive days at 5:00 pm and 7:00 am on day 8 and sacrificed 4 hr after last injection. All animal studies followed the guidelines of and were approved by the Harvard Institutional Animal Care and Use Committee
RNA from skeletal muscle and aorta were extracted with RNeasy mini kit (Qiagen) according to the instructions and quantified using the NanoDrop 1000 spectrophotometer (Thermo Scientific). cDNA was synthesized with the iSCRIP cDNA synthesis kit (BioRad) using 600 ng of RNA. Quantitative RT-PCR reactions were performed using 1 μM of primers and LightCycler® 480 SYBR Green Master (Roche) on an LightCycler® 480 detection system (Roche). Calculations were performed by a comparative method (2-ΔCT) using 18S as an internal control. Primers were designed using the IDT software (IDT).

[2] = test system: mitochondrial-encoded genes (ND1, Cytb, COX1 and ATP6); test: qPCR of mitochondrial-encoded genes in gastrocnemius of NMN-treated mice; assay type: in vivo
Description: as §1
(§4) Whole body adult-inducible Egln1 knockout mice (Minamishima et al, 2007) were treated with IP injection of tamoxifen for 3 days after which they were allowed to rest. The mice were given interperitoneal (IP) injections of 500 mg NMN/kg body weight per day or the equivalent volume of PBS for 7 consecutive days at 5:00 pm and 7:00 am on day 8 and sacrificed 4 hr after last injection. All animal studies followed the guidelines of and were approved by the Harvard Institutional Animal Care and Use Committee.
(§5) RNA from skeletal muscle tissue and C2C12 cells were extracted with RNeasy mini kit (Qiagen) according to the instructions and quantified using the NanoDrop 1000 spectrophotometer (Thermo Scientific). cDNA was synthesized with the iSCRIP cDNA synthesis kit (BioRad) using 600 ng of RNA. Quantitative RT-PCR reactions were performed using 1 μM of primers and LightCycler® 480 SYBR Green Master (Roche) on an LightCycler® 480 detection system (Roche). Calculations were performed by a comparative method (2-ΔCT) using 18S as an internal control. For mtDNA analysis, total DNA was extracted with DNeasy blood and tissue kit (Qiagen). mtDNA was amplified using primers specific for the mitochondrial cytochrome c oxidase subunit 2 (COX2) gene and normalized to genomic DNA by amplification of the ribosomal protein s18 (rps18) nuclear gene. […]

[3] = test system: skeletal muscle mitochondria; test: Mitochondrial function in skeletal muscle (membrane potential, ATP content, COX activity); assay type: in vivo, mice
Method: as §3, with “6, 22, 24, or 30” for “6, 22, or 24”, “24, or 30 months of” for “22, or 24 months of”, “sacrifice. 3, and 24-month-old” for “sacrifice. 3, 6, 22 and 24-month-old”
Skeletal muscle mitochondria were isolated as described previously (Frezza et al., Nat. Protoc. 2:287-295 (2007)). Mitochondrial membrane potential, cytochrome c activity and succinate dehydrogenase were determined as described (Brautigan et al., Methods Enzymol. 53:128-164 (1978); Rolo et al., Biochim. Biophys. Acta. 1637:127-132 ([…]); Singer, T. P., Methods Biochem. Anal. 22:123-175 (1974)). ATP content was measured with a commercial kit according to the manufacturer's instructions (Roche).
as §1, §4
Cytochrome c oxidase activity was polarographically determined based on the 02 consumption upon cytochrome c oxidation, as previously described (Brautigan et al., 1978). The reaction was carried out at 25° C. in 1.3 mL of standard respiratory medium (as in mitochondrial respiration) supplemented with 2 μM rotenone, 10 μM oxidized cytochrome c, 0.3 mg TritonX-100. Following addition of the sample, the reaction was initiated by adding 5 mM ascorbate plus 0.25 mM tetramethylphenylene-diamine (TMPD).
ATP content was measured with a commercial kit according to the manufacturer's instructions (Roche).

AKT and IRS-1 = test: Insulin signaling (phosphorylation of AKT and IRS-1) in skeletal muscle; assay type: in vivo; conditions: soleus of old mice treated with NMN
Description: as §1, §2

[4] = test system: HIF-1α target genes (PGK-1, Glut1, PKD1, VEGFa); test: qPCR of HIF-1α target genes in gastrocnemius of NMN-treated mice; assay type: in vivo; conditions: 24-month-old mice; NMN 500 mg/kg IP, one week
Method: as §3, with “6, 22, 24, or 30” for “6, 22, or 24”, “24, or 30 months of” for “22, or 24 months of”, “sacrifice. 3, and 24-month-old” for “sacrifice. 3, 6, 22 and 24-month-old”
as §5

[5] = Egln1 KO mice treated with NMN, compared to WT controls
[6] = treated 24-month-old mice, NMN 500 mg/kg IP, one week

SMILES: NC(=O)c1ccc[n+]([C@@H]2O[C@H](COP(=O)([O-])O)[C@@H](O)[C@H]2O)c1 [NMN, nicotinamide mononucleotide]
- VHL protein (VHL): reversed the age-induced decline in VHL
- inflammation related markers (IL-6, TNFa, Nlrp3, IL-1b, CD68 and IL-10) in aortas ([1]; FIG. 26): reduces inflammation in aortas from old mice
- inflammatory markers (VEGF and IL-18) in aortas ([1]; FIG. 27): reduces inflammation in aortas from old mice
- mitochondrial-encoded genes in the skeletal muscle [2, 5]: did not restore
- ability of NMN to induce mitochondrially-encoded genes ([2]; inducible SIRT1 KO mice, skeletal muscle): lost in animals lacking SIRT1
- expression of mitochondrial-encoded genes ([2]; old (22-month-old) mice, gastrocnemius, NMN one week): restored
- ATP levels ([3]; 22-month-old mice, gastrocnemius, NMN one week): increase
- ATP levels in the skeletal muscle [3, 5]: did not restore
- ability of NMN to improve mitochondrial function ([3]; inducible SIRT1 KO mice): lost in animals lacking SIRT1
- COX activity ([3]; old mice, NMN one week (FIG. 24H: 3- and 24-month-old)): increase
- ATP levels [3, 6]: increases
- COX activity [3, 6]: increases
- mitochondrial membrane potential [3, 6]: restoration of mitochondrial membrane potential to the levels of the young mice
- insulin signaling (phosphorylation of AKT and IRS-1) (AKT and IRS-1): restore insulin signaling
- expression of HIF-1α target genes [4]: suppressed the expression of HIF-1α target genes
